Publication PMC7377239, “Cardiovascular Effects of Polychlorinated Biphenyls and Their Major Metabolites” (Environmental Health Perspectives, 2020)
Where a name gives a salt, the structure may show the parent alone. Read-outs that look alike come from different tables or passages of the source.

System: iCell endothelial cells (human iPSC-derived ECs)
Experiment: Tube formation (tubulogenesis) assay in iCell endothelial cells, 18 h
Format: cell-based
Conditions: Homo sapiens, Endothelial cell, 18 hr; for activity at 0.1 µM: 0.10 µM
Protocol: The culture conditions of iCell®-endothelial cells were as reported elsewhere ([Iwata et al. 2017]). Briefly, T75 flasks were coated with a fibronectin solution ( 3 μg/cm^2 ) followed by incubation for 1–2 h. Cells were thawed for 3 min in a 37°C water bath. Thawed cells were added to maintenance medium made of VascuLife VEGF Medium Complete Kit, excluding the supplied FBS, and iCell® Endothelial Cells Medium Supplement. The final formulation of the maintenance medium is detailed in ([Iwata et al. 2017]). The aliquoted fibronectin solution was aspirated from the T75 flasks, and cells were seeded at 1.0×10^4 cells/cm^2 . Cells were maintained at 37°C and 5% CO2 with media changes occurring every 2 d and passaged every 3–4 d using TrypLE™ Express. All experiments were conducted on cells between passages 1 and 5.
Tube formation assays were performed on Geltrex™ LDEV-free reduced growth factor basement membrane using both iCell®-endothelial cells and HUVECs in 384-well format exactly as detailed in Iwata et al. ([2017]). Negative controls included media-only and vehicle control (i.e., 0.5% vol/vol DMSO in cell culture media) wells. Positive assay controls were consistent with previously published reports ([Iwata et al. 2017]) and included TAB ( 50μM ) as a cytotoxic control, and nocodazole ( 0.01–1μM ), suramin ( 0.5–50μM ), histamine ( 0.1–100μM ), and chloroquine ( 1–500μM ) as chemicals associated with specific effects on ECs. Each test chemical was screened in triplicate for each concentration. Briefly, for iCell®-endothelial cells, starvation media consisted of VascuLife® basal medium with 4 mM L-glutamine LifeFactor and 0.1% iCell®-endothelial cells medium supplement. To counter dilution effects, a 2× concentration of the HUVEC maintenance medium supplemented with additional VEGF was created (EGM™-2 BulletKits™ at 2× concentration; also the VEGF component was replaced with 12.5 ng/mL VEGF). Geltrex™ LDEV-free reduced growth factor basement membrane was thawed overnight and dispensed into 384-well plates ( 10μL/well ) with tapping and rotating to evenly coat. The plates were incubated for 1 h in a cell culture incubator at 37°C and 5% CO2 . A 2× PCB plate (containing all of the PCBs and metabolites in dose–response) was prepared in basal media and added, 25μL per well, to the Geltrex™ coated plates. On separate plates, cells were seeded 7,500 (iPSC- ECs) or 3,500 (HUVEC) cells/well. Cells were exposed to chemicals overnight at 37°C and 5% CO2 and stained with 3× concentration of calcein AM ( 25μL /well, 6μmol/L ) for 15 min before imaging. Images were captured at 4× magnification with the FITC filter (calcein AM). Images were analyzed with the angiogenesis module software within MetaXpress™ (Molecular Devices).
Phenotypic responses were quantitatively assessed using concentration–response modeling as detailed elsewhere ([Sirenko et al. 2017]). Briefly, phenotypic readouts were normalized to vehicle controls and fit to a four-parameter logistic model in R studio software (version 3.1.1; R Development Core Team). Following EPA guidance on dose–response modeling, a cutoff of one standard deviation across means of vehicle control (i.e., 0.5% vol/vol DMSO in cell culture media) wells was applied to determine the point-of-departure (POD) values ([U.S. EPA 2012]). In the absence of a concentration–response, the highest tested concentration (i.e., 100μM ) was assigned as “no observable adverse effect level.” The concentration–response assessment R script, as well as templates for vehicle and concentration–response data, are available as a supplement to Sirenko et al. ([2017]). The ability of physicochemical properties to predict differences in PODs were evaluated by multiregression and mixed-effects modeling using R.

[1] = iPSC-EC tube formation, 0.00 µM control = 100.00, read-out: endo.mtl.18hr
[2] = iPSC-EC tube formation, 0.00 µM control = 100.00, read-out: endo.tlps.18hr
[3] = iPSC-EC tube formation, 0.00 µM control = 100.00, read-out: endo.tta.18hr
[4] = iPSC-EC tube formation, 0.00 µM control = 100.00, read-out: endo.ttl.18hr
[5] = iPSC-EC tube formation, top concentration 100.00 µM, read-out: endo.mtl.18hr POD
[6] = iPSC-EC tube formation, top concentration 100.00 µM, read-out: endo.tlps.18hr POD
[7] = iPSC-EC tube formation, top concentration 100.00 µM, read-out: endo.tta.18hr POD
[8] = iPSC-EC tube formation, top concentration 100.00 µM, read-out: endo.ttl.18hr POD
[9] = endothelial cells (endo), tube formation mtl, read-out: POD endo.mtl.18hr
[10] = endothelial cells (endo), tube formation tlps, read-out: POD endo.tlps.18hr
[11] = endothelial cells (endo), tube formation tta, read-out: POD endo.tta.18hr
[12] = endothelial cells (endo), tube formation ttl, read-out: POD endo.ttl.18hr

Compound | activity at 0.01 µM [1] | activity at 0.01 µM [2] | activity at 0.01 µM [3] | activity at 0.01 µM [4] | activity at 0.1 µM [1] | activity at 0.1 µM [2] | activity at 0.1 µM [3] | activity at 0.1 µM [4] | activity at 1 µM [1] | activity at 1 µM [2] | activity at 1 µM [3] | activity at 1 µM [4] | activity at 10 µM [1] | activity at 10 µM [2] | activity at 10 µM [3] | activity at 10 µM [4] | activity at 100 µM [1] | activity at 100 µM [2] | activity at 100 µM [3] | activity at 100 µM [4] | further results
O=S(=O)(O)Oc1cccc(-c2ccc(Cl)cc2)c1 [3'-yl PCB 3 sulfate] | 93.5% | 81.8% | 112% | 103% | 87.9% | 126% | 93% | 88.2% | 91.5% | 103% | 108% | 98.9% | 70.7% | 99.4% | 63.7% | 60% | 59.2% | 33.7% | 59.5% | 60.4% | minimal effective concentration [5]: 0.58 µM; minimal effective concentration [6]: 38.6 µM; minimal effective concentration [7]: 11.6 µM; minimal effective concentration [8]: 8.75 µM
O=S(=O)(O)Oc1cc(-c2ccccc2)ccc1Cl [3-PCB 3 sulfate] | – | – | – | – | – | – | – | – | – | – | – | – | – | – | – | – | – | – | – | – | minimal effective concentration [9]: 100 µM; minimal effective concentration [10]: 6.75 µM; minimal effective concentration [11]: 100 µM; minimal effective concentration [12]: 100 µM
O=S(=O)(O)Oc1cc(-c2ccccc2)ccc1Cl [3-yl PCB 3 sulfate] | 102% | 104% | 152% | 139% | 88.6% | 127% | 93.5% | 88.4% | 92.1% | 89.4% | 106% | 101% | 75.1% | 68.7% | 61.4% | 59.2% | 83.7% | 46.7% | 78.8% | 79% | minimal effective concentration [5]: 100 µM; minimal effective concentration [6]: 6.75 µM; minimal effective concentration [7]: 100 µM; minimal effective concentration [8]: 100 µM
Oc1ccc(-c2ccc(Cl)cc2)cc1 [4'-OH PCB3] | 87.5% | 80.1% | 97.5% | 93.3% | 89.4% | 84.6% | 89.9% | 86.6% | 90.3% | 73.5% | 82.7% | 81.3% | 55.5% | 31.4% | 35.4% | 35% | 49.2% | 11.3% | 0.34% | 0.48% | minimal effective concentration [5]: 1.21 µM; minimal effective concentration [6]: 0.19 µM; minimal effective concentration [7]: 1.16 µM; minimal effective concentration [8]: 1.12 µM
Oc1ccc(-c2ccc(Cl)cc2)cc1 [4'-OH-PCB 3] | – | – | – | – | – | – | – | – | – | – | – | – | – | – | – | – | – | – | – | – | minimal effective concentration [9]: 1.21 µM; minimal effective concentration [10]: 0.19 µM; minimal effective concentration [11]: 1.16 µM; minimal effective concentration [12]: 1.12 µM
COc1ccc(-c2ccc(Cl)cc2)cc1 [4'-OMe PCB3] | 101% | 95.9% | 157% | 149% | 102% | 127% | 130% | 124% | 96% | 95% | 127% | 123% | 76% | 82.1% | 58.6% | 56.5% | 65.6% | 33% | 46.5% | 46.3% | minimal effective concentration [5]: 3.4 µM; minimal effective concentration [6]: 12.3 µM; minimal effective concentration [7]: 7.76 µM; minimal effective concentration [8]: 7.16 µM
COc1ccc(-c2ccc(Cl)cc2)cc1 [4'-OMe-PCB 3, 4′-methoxy-4-chlorobiphenyl] | – | – | – | – | – | – | – | – | – | – | – | – | – | – | – | – | – | – | – | – | minimal effective concentration [9]: 3.4 µM; minimal effective concentration [10]: 12.3 µM; minimal effective concentration [11]: 7.76 µM; minimal effective concentration [12]: 7.16 µM
O=S(=O)(O)Oc1ccc(-c2ccc(Cl)cc2)cc1 [4'-PCB 3 sulfate] | – | – | – | – | – | – | – | – | – | – | – | – | – | – | – | – | – | – | – | – | minimal effective concentration [9]: 4.33 µM; minimal effective concentration [10]: 11.7 µM; minimal effective concentration [11]: 16.8 µM; minimal effective concentration [12]: 11 µM
